Where two headings read alike, the source gives them in different places.
Experiments:
histamine H1 receptors = molecular target: T1, histamine H1 receptors (Rattus norvegicus, UniProt P31390); experiment: Histamine H1 receptor binding, [3H]mepyramine displacement in rat brain membranes; details: 12 concentrations 30 pM to 10 μM, means of 3 determinations
T1 construct: from tissue; host or cells: rat forebrain membranes
Description: Receptor binding was assayed using rat brain membranes incubated with [^3H]mepyramine and 12 concentrations of drugs ranging from 30 pM to 10 μM in triplicate. […] Hypothalamic Slices
Briefly, rats were killed by decapitation and the forebrains removed. Brains were homogenized in 30 vol of Na-K phosphate buffer, pH 7.5, and centrifuged at 48,000×g for 10 min. The tissue was resuspended in buffer and re-centrifuged for an additional 3 times. Tissue was resuspended in buffer at 15 mg/ml.
Tissue (0.2 ml) was added to tubes containing 25 μl of drug and 25 μl of [3H]mepyramine (30 nM). Non-specific binding was determined in the presence of 1 μM triprolidine.

hypothalamic AMPK = experiment: Phospho-AMPK in hypothalamic slices by Western blotting; type: cell-based, mice; details: 30 min; for levels of phospho-AMPK: 500 nM drug; for effect on hypothalamic phospho-AMPK: various concentrations
Text: FIGS. 1A-1F. AAPDs activate AMPK in hypothalamic slices.
The slices were dispersed in artificial cerebrospinal fluid buffer.

phospho-AMPK = details: ziprasidone 3 mg/kg i.p., 3 h
Description: Immunohistochemistry was performed with an antibody specific for phospho-AMPK. (FIG. 4D) Quantification of immunohistochemistry. Bars represent the mean±SE of five independent slides. (*p<0.005, **p<0.001 Student's t-test, n=5)
C57BL/6 mice or HR1−/− mice (8-10 weeks) were perfused with 4% paraformaldehyde maintained at 37° C. Organs were post-fixed 2 h at room temperature and cryoprotected overnight at 4° C. (30% sucrose in PBS). Free-floating sections (45 μm) were quenched with 3% H2O2 in water for 10 min at room temperature, washed in TBS-T (16 mM Tris pH 7.4, 140 mM sodium chloride, and 0.1% tween-20), and antigen retrieved for 30 min in a 70° C. water bath (10 mM sodium citrate in TBS-T). Sections were blocked (5% NGS in TBS-T) for 1 h at room temperature and incubated with a mouse anti-phospho-AMPKα antibody (Cell Signaling, Danvers, Mass.) diluted 1:200 into the blocking solution overnight at 4° C. Subsequent washes were conducted in TBST, and labeling was visualized with the Vectastain Elite ABC kit (Vector Laboratories, Burlingame, Calif.). Images were quantified with AlphaEaseFC program.

AMPK = experiment: Phospho-AMPK in tissues of intact mice by Western blotting; type: in vivo; details: for stimulation of hypothalamic phospho-AMPK in intact animals: triprolidine 3 mg/kg i.p., 3 h
Description: (§1) FIGS. 2A-2D. AAPDs activate AMPK in intact animals. […] Hypothalami were removed and tissue lysates analyzed for phospho-AMPK or α2-AMPK activity. […] Different parts of brain were isolated and α2-AMPK activity was assayed. Bars represent the mean±SE of three independent lysates performed in triplicate. (* Student's t-test, n=5)
FIGS. 5A-5F. […] Cerebellum and liver were removed and phosphorylated AMPK (AMPK-P) detected by western blotting. Each lane represents tissue from individual mouse. […] Hypothalamus, cerebellum and liver were removed and phosphorylated AMPK (AMPK-P) detected by western blotting. Each lane represents a tissue from individual mouse. […] Hypothalamus and cerebellum were removed and phosphorylated AMPK (AMPK-P) detected by western blotting. Each lane represents a tissue from individual mouse. […] Hypothalami were removed and phosphorylated AMPK (AMPK-P) detected by western blotting. Each lane represents a tissue from an individual mouse. […] Hypothalami were removed and AMPK activity monitored as described in Material and Methods. Bars represent the mean±SE of three independent lysates performed in triplicate.
(§2) Experiments were done at age 8-10 weeks. All drugs were administered by i.p. injection. […] Procedures were approved by guidelines of the Johns Hopkins University School of Medicine Institutional Animal Care and Use Committee.
All drugs were purchased from Toronto Research Chemicals Inc. (Toronto, Canada). […] The drug was diluted with 8.5 ml saline solution, and the appropriate doses were administrated to mice. For control mice, the same solution was injected without a drug. For in vitro assays, drugs were dissolved in DMSO.

α2-AMPK = α2-AMPK activity in tissue lysates of intact mice; type: in vivo; details: leptin 3 mg/kg
Description: as §1, §2

T1 sequence (P31390 whole entry): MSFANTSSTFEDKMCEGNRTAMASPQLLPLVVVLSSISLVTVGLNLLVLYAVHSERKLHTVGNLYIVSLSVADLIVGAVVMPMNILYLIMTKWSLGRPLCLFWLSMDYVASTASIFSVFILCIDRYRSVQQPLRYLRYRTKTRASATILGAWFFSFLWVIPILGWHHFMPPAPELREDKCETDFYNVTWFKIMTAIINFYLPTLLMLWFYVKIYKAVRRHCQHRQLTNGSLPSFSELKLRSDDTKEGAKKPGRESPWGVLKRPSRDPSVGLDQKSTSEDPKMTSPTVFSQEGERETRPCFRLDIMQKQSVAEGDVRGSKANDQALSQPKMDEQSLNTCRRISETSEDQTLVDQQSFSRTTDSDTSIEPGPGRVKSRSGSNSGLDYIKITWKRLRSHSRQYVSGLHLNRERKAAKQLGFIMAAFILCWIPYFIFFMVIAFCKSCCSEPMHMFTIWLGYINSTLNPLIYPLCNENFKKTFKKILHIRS

Molecule: O=C1CCc2ccc(OCCCCN3CCN(c4cccc(Cl)c4Cl)CC3)cc2N1 [Aripipirazole]
- IC50 (histamine H1 receptors): > 3000 nM
- levels of phospho-AMPK (hypothalamic AMPK): fail to stimulate

Molecule: O=C(CCCN1CCC(O)(c2ccc(Cl)cc2)CC1)c1ccc(F)cc1 [Haloperidol]
- levels of phospho-AMPK (hypothalamic AMPK): fail to stimulate

Molecule: Cc1nc2n(c(=O)c1CCN1CCC(c3noc4cc(F)ccc34)CC1)CCCC2 [Risperidone]
- levels of phospho-AMPK (hypothalamic AMPK): fail to stimulate

Molecule: O=C1Cc2cc(CCN3CCN(c4nsc5ccccc45)CC3)c(Cl)cc2N1 [Ziprasidone]
- phospho-AMPK in the paraventricular nucleus / hypothalamus (phospho-AMPK): fails to alter
- phospho-AMPK in the paraventricular nucleus / hypothalamus (phospho-AMPK; listed as Ziprasodine): no effect
- IC50 (histamine H1 receptors): 150 nM
- levels of phospho-AMPK (hypothalamic AMPK): fail to stimulate

Molecule: NCCc1c[nH]cn1 [histamine]
- effect of histamine on phospho-AMPK (hypothalamic AMPK; different concentrations of histamine): decreases

Molecule: Cc1ccc(/C(=C\CN2CCCC2)c2ccccn2)cc1 [triprolidine]
- stimulation of hypothalamic phospho-AMPK in intact animals (AMPK): to the same extent as clozapine
- stimulation of hypothalamic phospho-AMPK in intact animals (AMPK; listed as Triprolidine): activates
- stimulation of phospho-AMPK (hypothalamic AMPK; triprolidine 50 or 500 nM vs clozapine 200 nM): to the same extent as clozapine

Molecule: insulin
- effect on hypothalamic phospho-AMPK (hypothalamic AMPK): reductions

Molecule: leptin
- hypothalamic phospho-AMPK (AMPK; intact mice, leptin 3 mg/kg): reduces
- hypothalamic AMPK catalytic activity (α2-AMPK): reduces
- effect on hypothalamic phospho-AMPK (hypothalamic AMPK): reductions

— patent US8148095B2, “Methods for predicting psychotropic drugs which elicit weight gain” (The Johns Hopkins University, priority 2006, dated 2012)
